What was measured:
TRPA1 = target: T1, TRPA1 (Mus musculus, UniProt Q8BLA8); experiment: IonWorks Barracuda (IWB) automated patch clamp detection of TRPA1 inhibitory activity; type: cell-based
T1 construct: expressed in transfected cells
Method: IonWorks Barracuda (IWB) automated patch clamp detection was used as test method: HEK293 cells stably expressing TRPA1 were placed in the T175 culture flask with DMEM medium containing 15 μg/mL Blasticidin S HCl, 200 μg/mL Hygromycin B and 10% FBS, and cultured in an incubator in 5% CO2 at 37° C. When the cell density reached about 80%, the culture medium was removed, the residue was rinsed once with phosphate buffered saline (PBS) without calcium and magnesium. 3 mL of Trypsin was added to digest for 2 min, 7 mL of culture medium was added to terminate the digestion. The cells were collected to 15 mL centrifuge tube and centrifuged at 800 rpm for 3 min. After the supernatant was removed, the cells were added to appropriate volume of extracellular fluid for re-suspending, and the cell density was controlled at 2-3×10^6/mL for IWB experiment. The formulation of extracellular fluid (in mM) was 140 NaCl, 5 KCl, 1 MgCl2, 10 HEPES, 0.5 EGTA, 10 Glucose (pH 7.4); the formulation of intracellular fluid (in mM) was 140 CsCl, 10 HEPES, 5 EGTA, 0.1 CaCl2), 1 MgCl2 (pH 7.2). 28 mg/mL of amphotericin B was freshly prepared with DMSO on the day of experiment, and then final concentration of 0.1 mg/mL of that was prepared with intracellular fluid.
Population patch clamp (PPC) plate was used in IWB experiment. The entire detection process was automatically carried out by the instrument. […]
The record of data and the export of current amplitude measurement were carried out by IWB software (version 2.5.3, Molecular Devices Corporation. Union City, CA). No statistics was recorded for wells with sealing impedance lower than 20 MΩ. […] TRPA1 current amplitude was measured at ±100 mV. […] The dose-effect curve of compounds and IC50 were fitted and calculated by GraphPad Prism 5.02 (GraphPad Software, San Diego, CA).

HepG2 cell = experiment: Cytotoxicity test (CCK-8), hepatotoxicity; type: cell-based; conditions: Homo sapiens, HepG2, 72 h
Method: (§1) HepG-2 and SH-SY5Y cells were prepared and placed in a 10 cm dish and cultured in a cell incubator in 5% CO2 at 37° C. Trypsin was used to digest and cells were re-suspended and counted. The cells were transferred to 96-well plate with 8000 cells in a well (100 μl/well). The plate was cultured in a cell incubator for 24 h in 5% CO2 at 37° C. A serial of gradient concentration dilutions of compound with 2-fold dilution were prepared, and the system was 100 μL/well. The supernatant of cell culture system on the first day in the 96-well plate was removed, and fresh-prepared drug concentration system was added into culture plate wells containing cultured cells (duplicate wells were set). The cells were cultured in a cell incubator in 5% CO2 at 37° C. for 72 h. After the cell culture was completed, the supernatant of cell culture system was removed from 96-well plate, 100 μl of detection solution containing 10% CCK-8 medium was added into each well, and the cells were cultured in a cell incubator in 5% CO2 at 37° C. for 1 h and then taken out after time was up. Microplate reader was used to measure the absorbance at 450 nm. Data was processed to calculate cytotoxicity, and IC50 was calculated by GraphPad Prism. The cytotoxicity calculation formula was as follows: Cytotoxicity (%)=[A(0 Dosing)−A(Dosing)]/[A(0 Dosing)-A (Control)]×100 • A (Dosing): the absorbance of wells containing cells, CCK-8 solution and drug solution. • A (Control): the absorbance of wells containing medium and CCK-8 solution and without cells. • A (0 Dosing): the absorbance of wells containing cells and CCK-8 solution and without drug solution. Experimental Result

SH-SY5Y = experiment: Cytotoxicity test (CCK-8), neurotoxicity; type: cell-based; conditions: Homo sapiens, 72 h
Method: as §1

C57BL/6 mice = experiment: formalin pain model in mice; type: in vivo; conditions: for paw licking time: Phase II, 10-60 min; for analgesic effect (EDso) in phase II pain: intraperitoneal
Method: Before the start of experiment, the mice were allowed to adapt to the experimental environment for 72 h with free feeding and drinking water. The test drug was administrated by intraperitoneal injection at a dose of 20 mg/kg, and then the mice were placed in a transparent, ventilated plexiglass cylinder for 1 h, and then 20 μl of 4% formalin solution was injected into the left hind plantar of mice of each group by microinjector. The paw pain response of mice was real-time recorded by miniature camera. The frequency of lifting (1 score/time), shaking (2 score/time), and licking (3 score/time) the left paw and the time length of licking left paw were used as indicators of pain response, the cumulative scoring and licking time in two stages of 0-10 min (phase I, acute pain phase) and 10-60 min (phase II, inflammatory pain phase) were observed and recorded, and the statistical analysis was conducted.
100 male C57BL/6 mice (9-week aged) were randomly divided into 10 groups to evaluate analgesic activity of two compounds in the formalin pain model in mice, and each group had 10 mice. […] Before the start of experiment, the mice were allowed to adapt experimental environment for 72 h with free feeding and drinking water.
After administration, the mice were placed in a transparent, ventilated plexiglass cylinder, and 1 h later, 20 μl of 4% formalin solution was injected into the left hind plantar of mice in each group by micro-injector, and paw pain response in mice was recorded in real time by a mini-camera. The time length of licking left paw was used as an indicator of pain response, licking time in 0-10 min (phase I) and 10-60 min (phase II) was observed and recorded, and the statistical analysis was conducted. The half effective dose (EDso) of three compounds was calculated: EDso referred to the dose of the drug that decreased licking time by half as compared with the blank control group. The less the ED50 value was, the lower the effective analgesic dose of the compound was and the stronger the analgesic effect was.

T1 sequence (Q8BLA8 whole entry): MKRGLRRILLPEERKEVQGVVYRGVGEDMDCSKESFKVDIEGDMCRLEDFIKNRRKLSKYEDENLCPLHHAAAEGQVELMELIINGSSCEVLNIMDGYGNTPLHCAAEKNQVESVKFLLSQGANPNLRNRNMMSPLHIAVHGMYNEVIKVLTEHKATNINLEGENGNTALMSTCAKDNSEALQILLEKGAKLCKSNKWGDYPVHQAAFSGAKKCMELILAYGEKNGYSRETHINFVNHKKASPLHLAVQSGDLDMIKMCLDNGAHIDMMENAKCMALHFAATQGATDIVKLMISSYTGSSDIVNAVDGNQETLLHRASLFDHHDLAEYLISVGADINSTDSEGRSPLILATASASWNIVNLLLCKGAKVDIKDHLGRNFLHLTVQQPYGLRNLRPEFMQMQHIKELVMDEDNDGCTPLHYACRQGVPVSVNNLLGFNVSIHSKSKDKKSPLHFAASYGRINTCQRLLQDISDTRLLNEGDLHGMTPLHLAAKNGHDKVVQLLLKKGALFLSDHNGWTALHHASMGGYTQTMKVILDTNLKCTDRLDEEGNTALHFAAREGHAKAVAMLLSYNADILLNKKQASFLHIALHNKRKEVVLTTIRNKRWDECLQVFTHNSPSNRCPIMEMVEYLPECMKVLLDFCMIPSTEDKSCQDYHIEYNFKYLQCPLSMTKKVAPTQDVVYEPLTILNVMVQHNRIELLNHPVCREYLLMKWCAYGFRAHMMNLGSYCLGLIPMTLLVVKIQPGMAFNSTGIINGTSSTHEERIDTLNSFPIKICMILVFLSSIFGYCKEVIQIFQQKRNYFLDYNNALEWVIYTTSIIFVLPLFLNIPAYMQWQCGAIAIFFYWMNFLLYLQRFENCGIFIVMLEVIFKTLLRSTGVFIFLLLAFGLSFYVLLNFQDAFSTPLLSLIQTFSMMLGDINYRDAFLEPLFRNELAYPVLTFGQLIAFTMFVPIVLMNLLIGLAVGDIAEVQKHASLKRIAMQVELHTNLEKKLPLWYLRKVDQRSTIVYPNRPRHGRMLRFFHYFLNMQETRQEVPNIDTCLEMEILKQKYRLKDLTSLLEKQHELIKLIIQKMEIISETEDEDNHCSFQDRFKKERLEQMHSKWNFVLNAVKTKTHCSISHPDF

Row | activity ratio, IC50 of compound C1/IC50 of compound IC-10 (TRPA1) | Compound | IC50 (HepG2 cell) | IC50 (SH-SY5Y) | analgesic activity, licking time (C57BL/6 mice; 20 mg/kg intraperitoneal, phase I (0-10 min) and phase II (10-60 min), compared with saline group) | IC50 (TRPA1; HEK293 cells stably expressing TRPA1, AITC-induced current) | paw licking time (C57BL/6 mice; 1 mg/kg intraperitoneal) | paw licking time (C57BL/6 mice; 5 mg/kg intraperitoneal) | paw licking time (C57BL/6 mice; 10 mg/kg intraperitoneal) | paw licking time (C57BL/6 mice; 20 mg/kg intraperitoneal) | analgesic effect (EDso) in phase II pain (C57BL/6 mice; phase II (10-60 min)) | paw licking time (C57BL/6 mice; 0.1 mg/kg intraperitoneal) | paw licking time (C57BL/6 mice; 0.5 mg/kg intraperitoneal) | decrease of paw licking time as compared with blank vehicle (C57BL/6 mice; 1 mg/kg, phase II (10-60 min))
1 | about 2.5 times | CNCC[C@H](Oc1cccc2c1CCC2)c1cccs1 [IC-10] | 60 to 120 µM | 60 to 120 µM | almost completely inhibited licking paw behavior caused by pain |  |  |  |  |  |  |  |  | 
2 |  | CNCC[C@H](Oc1cccc2ccccc12)c1cccs1 [Duloxetine (S configuration), Duloxetine, reference compound] | 33 µM | 28 µM |  | 10 to 20 µM | 259.97 ± 64.44 s | 230.49 ± 41.31 s | 162.83 ± 36.27 s | 72.27 ± 17.29 s | 8.00 mg/kg |  |  | 
3 |  | CNCC[C@H](Oc1cccc2ccoc12)c1cccs1 [IC-1, (S)-3-(Benzofuran-7-yloxy)-N-methyl-3-(thiophen-2-yl)propan-1-amine] | 60 to 120 µM | 60 to 120 µM |  |  | 171.57 ± 39.69 s | 158.02 ± 25.18 s | 35.68 ± 11.77 s |  | 2.22 mg/kg | 339.35 ± 27.90 s | 368.16 ± 44.46 s | more than 50%

Source: patent US12492195B2, “Preparation method for and crystal form of 3-aryloxy-3-five-membered heteroaryl-propylamine compound” (Zhangzhou Pien Tze Huang Pharmaceutical Co., Ltd., priority 2020, dated 2025)
